Consider one molecule from patent publication US20110312984A1, “STAT3 INHIBITORS” (priority 2008, published 2011).

Common to all, as to type: cell-based
In one experiment the test system is MCF7. Kind of experiment: Breast cancer cell line apoptosis assay (nucleosome ELISA). The settings on record: Homo sapiens, MCF7, 24 h. The procedure: (§1) Breast cancer cell line apoptosis assay. Human breast carcinoma cell lines MDA-MB-468, MDA-MB-231, MBA-MD-435 and MCF7 were kindly provided by Dr. Powel H. Brown (Breast Cancer Center, Baylor College of Medicine). Breast cancer cell line, MDA-MB-453 was kindly provided by Dr. Shou Jiang (Breast Cancer Center, Baylor College of Medicine). All cell lines were grown in DMEM medium supplemented with 10% fetal bovine serum (FBS), 25,000 units penicillin G, 25,000 ug streptomycin, and 131.4 mg L-Glutamine and cultured in the incubator under the condition of 95% air, 5% CO2 at 37° C. (Garcia et al., 2001). Cells were seeded at 2,500 cells/cm^2 into 12-well plates. At 80% confluency, cells were washed with PBS and supplemented with fresh medium containing compound or the topoisomerase I-inhibitor, camptothecin, at 0, 0.1, 03, 1, 3, 10, 30, 100, 300 µM. At 24 hours, treatment was terminated by removing the medium from each well. Cells were lysed with cell lysis buffer (600 μl for 30 minutes at 25° C.). Cell lysate (200 μl) was centrifuged at 200×g for 10 minutes and 20 μl of each supernatant was assayed for nucleosomes using the Cell Death Detection ELISA (Roche Applied Science) as described by the manufacturer. The percent maximum nucleosome level was calculated by dividing the nucleosome level by the maximum nucleosome level achieved in the assay and multiplying by 100. […]

The next experiment relates to MDA-MB-453. Described as above. The settings on record: Homo sapiens, MDA-MB-453, 24 h. The procedure:
as §1

Another experiment has as its target T1, Stat1 (Homo sapiens, UniProt P42224).
T1 construct: endogenous in cells; host or cells: HepG2
T1 sequence (P42224 1-750): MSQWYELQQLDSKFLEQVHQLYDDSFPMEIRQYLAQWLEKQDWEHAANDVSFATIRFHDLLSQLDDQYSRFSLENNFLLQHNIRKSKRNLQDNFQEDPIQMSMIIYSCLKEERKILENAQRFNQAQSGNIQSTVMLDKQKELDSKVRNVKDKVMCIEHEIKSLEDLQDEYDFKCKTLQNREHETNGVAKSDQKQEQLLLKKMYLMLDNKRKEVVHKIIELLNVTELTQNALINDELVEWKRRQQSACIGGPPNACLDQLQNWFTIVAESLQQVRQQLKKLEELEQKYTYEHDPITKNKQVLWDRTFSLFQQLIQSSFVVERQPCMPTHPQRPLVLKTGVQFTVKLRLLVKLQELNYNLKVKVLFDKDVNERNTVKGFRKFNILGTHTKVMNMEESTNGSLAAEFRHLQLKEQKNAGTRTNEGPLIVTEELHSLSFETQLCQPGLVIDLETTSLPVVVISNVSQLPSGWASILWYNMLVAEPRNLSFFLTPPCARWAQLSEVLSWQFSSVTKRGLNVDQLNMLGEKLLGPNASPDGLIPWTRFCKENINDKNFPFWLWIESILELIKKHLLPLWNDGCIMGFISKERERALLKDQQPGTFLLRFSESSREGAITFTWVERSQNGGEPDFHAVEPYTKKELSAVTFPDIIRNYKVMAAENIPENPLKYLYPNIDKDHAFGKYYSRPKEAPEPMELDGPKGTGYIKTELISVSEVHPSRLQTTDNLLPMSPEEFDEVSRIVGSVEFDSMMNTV
Kind of experiment: Immunoblot assay: IFN-γ-mediated phosphorylation of Stat1 in HepG2 cells. The settings on record: 300 μM, 1 hour at 37° C. before IFN-γ stimulation. How it is done:
Immunoblot assay. The human hepatocellular carcinoma cell line (HepG2) was grown in 6-well plates under standard conditions. Cells were pretreated with compounds (0, 1, 3, 10, 30, 100 and 300 uM) for 1 hour then stimulated under optimal conditions with either interferon gamma (IFN-γ; 30 ng/ml for 30 min) to activate Stat1 or interleukin-6 (IL-6; 30 ng/ml for 30 min) to activate Stat3 (30-31). Cultures were then harvested and proteins extracted using high-salt buffer, as described (Shao et al., 2006). Briefly, extracts were mixed with 2× sodium dodecyl sulfate (SDS) sample buffer (125 mmol/L Tris-HCL pH 6.8; 4% SDS; 20% glycerol; 10% 2-mercaptoethanol) at a 1:1 ratio and heated for 5 minutes at 100° C. Proteins (20 μg) were separated by 7.5% SDS-PAGE and transferred to polyvinylidene fluoride (PVDF) membrane (Millipore, Waltham, Mass.) and immunoblotted. Prestained molecular weight markers (Biorad, Hercules, Calif.) were included in each gel. Membranes were probed serially with antibody against Stat1 pY^701 or Stat3 pY^705 followed by antibody against Stat1 or Stat3 (Transduction labs, Lexington, Ky.) then antibody against β-actin (Abcam, Cambridge, Mass.). Membranes were stripped between antibody probing using Restore™ Western Blot Stripping Buffer (Thermo Fisher Scientific Inc., Waltham, Mass.) per the manufacturer's instructions. Horseradish peroxidase-conjugated goat-anti-mouse IgG was used as the secondary antibody (Invitrogen Carlsbad, Calif.) and the membranes were developed with enhanced chemiluminescence (ECL) detection system (Amersham Life Sciences Inc.; Arlington Heights, Ill.).
EXP IIC. Ligand-mediated pStat3 and pStat1 inhibition assays. […] Briefly, human hepatocellular carcinoma cells (HepG2) are grown in 6-well plates and pretreated with compounds (0, 0.1, 0.3, 1, 3, 10, 30, 100 μM) for 1 hour then stimulated under optimal conditions with either interleukin-6 (IL-6; 30 ng/ml for 30 min) to activate Stat3 or interferon gamma (IFN-γ; 30 ng/ml for 30 min) to activate Stat1. Cells are harvested and proteins extracted using high-salt buffer, mixed with 2× sodium dodecyl sulfate (SDS) sample buffer (125 mmol/L Tris-HCL pH 6.8; 4% SDS; 20% glycerol; 10% 2-mercaptoethanol) at a 1:1 ratio then heated for 5 minutes at 100° C. Proteins (20 μg) are separated by 7.5% SDS-PAGE and transferred to polyvinylidene fluoride (PVDF) membrane (Millipore, Waltham, Mass.) and immunoblotted. Membranes are probed serially with antibody against Stat1 pY701 or Stat3 pY705 followed by antibody against Stat 1 or Stat3 (Transduction labs, Lexington, Ky.) then antibody against β-actin (Abcam, Cambridge, Mass.). Membranes are stripped between antibody probings using Restore™ Western Blot Stripping Buffer (Thermo Fisher Scientific Inc., Waltham, Mass.) per the manufacturer's instructions. Horseradish peroxidase-conjugated goat-anti-mouse IgG is used as the secondary antibody (Invitrogen Carlsbad, Calif.) and the membranes are developed with enhanced chemiluminescence (ECL) detection system (Amersham Life Sciences Inc.; Arlington Heights, Ill.). Band intensities are quantified by densitometry. The value of each pStat3 band is divided by its corresponding total Stat3 band intensity; the results are normalized to the DMSO-treated control value. This value was plotted as a function of the log compound concentration. The best-fitting curve is determined using 4-Parameter Logistic Model/Dose Response/XLfit 4.2, IDBS software and was used to calculate the IC50 value.
On the technique in general: Immunoblotting shows a protein as a band on a membrane.

With `O=C(O)CSc1cc(NS(=O)(=O)c2ccc(C(=O)O)cc2)c2ccccc2c1O` [Cpd188, 4-[({3-[(carboxymethyl)thio]-4-hydroxy-1-naphthyl}amino)sulfonyl]benzoic acid], the EC50 was determined as 15.5 µM with MCF7 and 17.2 µM in the experiment with MDA-MB-453. In addition, the Stat1 phosphorylation blocked entry on Stat1 is “did not”.

Usually EC50 stands for the midpoint of the concentration-response curve.
